Reference: paper PMC3980023 (Cancer discovery, 2014)

Target: T1, IKKε (Homo sapiens, UniProt Q14164)
T1 sequence (Q14164 1-716): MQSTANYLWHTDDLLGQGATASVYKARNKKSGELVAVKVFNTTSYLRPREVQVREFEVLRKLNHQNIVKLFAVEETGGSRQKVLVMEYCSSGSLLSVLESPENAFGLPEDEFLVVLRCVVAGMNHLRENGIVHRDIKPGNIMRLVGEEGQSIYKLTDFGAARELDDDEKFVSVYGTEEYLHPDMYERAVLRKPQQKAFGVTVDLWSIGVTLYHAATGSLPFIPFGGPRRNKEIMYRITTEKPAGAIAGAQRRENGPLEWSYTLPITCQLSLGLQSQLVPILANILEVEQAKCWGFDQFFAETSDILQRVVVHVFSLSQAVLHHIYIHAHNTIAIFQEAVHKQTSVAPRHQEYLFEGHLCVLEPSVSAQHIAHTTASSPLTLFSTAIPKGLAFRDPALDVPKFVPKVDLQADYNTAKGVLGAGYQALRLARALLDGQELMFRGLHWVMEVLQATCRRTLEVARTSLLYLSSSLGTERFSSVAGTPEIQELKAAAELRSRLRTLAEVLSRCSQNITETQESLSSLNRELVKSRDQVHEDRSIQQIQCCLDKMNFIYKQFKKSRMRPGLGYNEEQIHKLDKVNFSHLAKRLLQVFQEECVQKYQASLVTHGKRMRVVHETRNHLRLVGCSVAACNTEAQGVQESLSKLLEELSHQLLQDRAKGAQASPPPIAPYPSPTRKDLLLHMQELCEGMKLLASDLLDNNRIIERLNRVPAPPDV
Format: biochemical

N#CCNC(=O)c1ccc(-c2ccnc(Nc3ccc(N4CCOCC4)cc3)n2)cc1 [CYT387]
IC50: 42 nM
